This note sets out measurements from PubChem BioAssay (NCI).

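Growth conditions: 96-well plates. Treatment: test compound, 48 hours, 5 concentrations. Analysis: linear interpolation between bracketing concentrations; unreached endpoints set to highest concentration. GI50 marks 50% less growth. TGI marks complete inhibition of growth.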

For one assay, the system named is SN12K1 renal. As to the kind of experiment: NCI tumour cell line growth inhibition, 48 h.
Another assay concerns P388/ADR leukemia. As to the kind of experiment: NCI tumour cell line growth inhibition, 48 h.

For `O=C(O)c1ccc(C(=O)O)c(C(=O)O)c1.[NH-]C1CCCCC1[NH-].[Pt+2]`, the values for the GI50 in the assay on SN12K1 renal and in the assay on P388/ADR leukemia were 2.71 µM and 2.15 µM, respectively. Besides, the TGI with SN12K1 renal was 19 µM; in the assay on P388/ADR leukemia it was over 100 µM.

`CCOC(=O)Nc1ccc2c(c1)N(C(=O)CCN(CC)CC)c1ccccc1S2` returned a TGI in the assay with SN12K1 renal of 95.3 µM.
